Assay results as given in ChEMBL document CHEMBL1126764, “Bicyclic thiazolidine lactam peptidomimetics of the dopamine receptor modulating peptide Pro-Leu-Gly-NH2” (J Med Chem, 1993).

Biological target: Dopamine receptor (Bos taurus) (UniProt Q95136+P20288)
Experiment: Ability to enhance the binding of [3H]- ADTN to dopamine receptor from freshly dissected bovine caudate
Format: protein assay

Enhancement [%]	Structure (SMILES)
200	NC(=O)[C@H]1CS[C@@H]2C[C@@H](NC(=O)C3CCCN3)C(=O)N12 (some centres not stated)
75	NC(=O)[C@H]1CS[C@@H]2CC[C@@H](NC(=O)C3CCCN3)C(=O)N12 (some centres not stated)
